Test [1] deals with T1, CD73 (Homo sapiens (Human), UniProt P21589). The format is biochemical. The settings on record: 1 mM NaH2PO4 in enzyme buffer, CD73 0.3 nM, AMP 15 uM.
For test [2], the target named is T1, CD73. In words: MDA-MB-231 Cell Based CD73 Activity Assay (DMEM). The settings on record: MDA-MB-231-GFP cells, DMEM medium with 10% human plasma, 200 uM AMP.

Structures are written as SMILES.

The record followed here is patent US20240043427A1 (Gilead Sciences, Inc., priority 2020, published 2024).

A word on the IC50: it is the point on the concentration scale where inhibition reaches its midpoint. A low value points to greater potency. The term EC50 denotes the concentration needed to bring the measured effect to its halfway point. A lower EC50 goes with an effect from little substance.

T1 sequence (P21589 27-574): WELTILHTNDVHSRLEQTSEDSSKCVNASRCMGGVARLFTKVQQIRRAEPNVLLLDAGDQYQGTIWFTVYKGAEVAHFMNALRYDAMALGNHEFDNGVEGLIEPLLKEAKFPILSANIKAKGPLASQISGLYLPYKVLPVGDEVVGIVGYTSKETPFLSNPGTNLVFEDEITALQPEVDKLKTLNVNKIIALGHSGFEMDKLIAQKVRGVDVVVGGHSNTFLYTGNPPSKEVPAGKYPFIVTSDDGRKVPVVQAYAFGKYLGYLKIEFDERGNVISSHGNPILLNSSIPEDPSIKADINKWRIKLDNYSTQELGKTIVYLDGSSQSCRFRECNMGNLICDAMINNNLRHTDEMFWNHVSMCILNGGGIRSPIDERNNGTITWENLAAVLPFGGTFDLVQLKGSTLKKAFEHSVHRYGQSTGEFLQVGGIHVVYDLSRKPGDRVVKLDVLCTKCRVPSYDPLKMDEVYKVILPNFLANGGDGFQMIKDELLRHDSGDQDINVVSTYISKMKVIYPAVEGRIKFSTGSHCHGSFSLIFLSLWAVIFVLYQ

The molecule `O=c1[nH]cc(-c2cc(N3CCC(F)(C(F)(F)F)C3)c3nccn3n2)c(=O)[nH]1` (stereo not shown) [Example 169, 5-(8-(3-fluoro-3-(trifluoromethyl)pyrrolidin-1-yl)imidazo[1,2-b]pyridazin-6-yl)pyrimidine-2,4(1H,3H)-dione] registered an IC50 at CD73 [1] of 73.9 nM. The molecule also registered an EC50 at CD73 [2] of 189 nM.

As for `O=c1[nH]cc(-c2cc(N3CC(C(F)F)C4(CC4)C3)c3nccn3n2)c(=O)[nH]1` (stereo not shown) [Example 170, 5-(8-(7-(difluoromethyl)-5-azaspiro[2.4]heptan-5-yl)imidazo[1,2-b]pyridazin-6-yl)pyrimidine-2,4(1H,3H)-dione], the IC50 against CD73 [1] came out at 35.4 nM. This molecule showed an EC50 at CD73 [2] of 136 nM.

As for `O=c1[nH]cc(-c2cc(N3CC(F)C4(CC4)C3)c3nccn3n2)c(=O)[nH]1` (stereo not shown) [Example 171, 5-(8-(7-fluoro-5-azaspiro[2.4]heptan-5-yl)imidazo[1,2-b]pyridazin-6-yl)pyrimidine-2,4(1H,3H)-dione], the 50% inhibitory concentration (IC50) against CD73 [1] came out at 3.17 nM. For the same molecule, the concentration for a half-maximal effect (EC50) on CD73 [2] amounted to 14.1 nM.

At CD73 [1], `COc1ccc(C2CCN(c3cc(-c4c[nH]c(=O)[nH]c4=O)nn4ccnc34)C2)cc1` (stereo not shown) [Example 173, 5-(8-(3-(4-methoxyphenyl)pyrrolidin-1-yl)imidazo[1,2-b]pyridazin-6-yl)pyrimidine-2,4(1H,3H)-dione] displayed an IC50 of 3.59 nM. In addition, on CD73 [2], the EC50 was determined as 88.2 nM.

Molecule `CC(C)[C@@H]1CCN(c2cc(-c3c[nH]c(=O)[nH]c3=O)nn3ccnc23)C1` [Example 174, (S)-5-(8-(3-isopropylpyrrolidin-1-yl)imidazo[1,2-b]pyridazin-6-yl)pyrimidine-2,4(1H,3H)-dione] registered an IC50 at CD73 [1] of 69 nM. At CD73 [2], this molecule displayed an EC50 of 214 nM.

Turning to `O=c1[nH]cc(-c2cc(N3CC[C@@H](C(F)(F)F)C3)c3nccn3n2)c(=O)[nH]1` [Example 175, (R)-5-(8-(3-(trifluoromethyl)pyrrolidin-1-yl)imidazo[1,2-b]pyridazin-6-yl)pyrimidine-2,4(1H,3H)-dione], on CD73 [1], the IC50 was determined as 3.6 nM. The response on CD73 [2] was half-maximal at 23.1 nM (EC50).

`O=c1[nH]cc(-c2cc(N3CCC(F)(F)C3)c3ncc(F)n3n2)c(=O)[nH]1` [Example 176, 5-(8-(3,3-difluoropyrrolidin-1-yl)-3-fluoroimidazo[1,2-b]pyridazin-6-yl)pyrimidine-2,4(1H,3H)-dione]: on CD73 [1], the IC50 was found to be 11 nM. Besides, on CD73 [2], the EC50 was determined as 59.5 nM.

Molecule `O=c1[nH]cc(-c2cc(N3C[C@@H](F)[C@@H](F)C3)c3ncc(F)n3n2)c(=O)[nH]1` [Example 177, 5-(8-((3R,4S)-3,4-difluoropyrrolidin-1-yl)-3-fluoroimidazo[1,2-b]pyridazin-6-yl)pyrimidine-2,4(1H,3H)-dione] came in with a half-maximal inhibitory concentration (IC50) at CD73 [1] of 7.27 nM. Moreover, the EC50 on CD73 [2] worked out at 33.3 nM.

For `CC1(C(F)(F)F)CCN(c2cc(-c3c[nH]c(=O)[nH]c3=O)nn3ccnc23)C1` (stereo not shown) [Example 185, 5-[8-[3-methyl-3-(trifluoromethyl)pyrrolidin-1-yl]imidazo[1,2-b]pyridazin-6-yl]-1H-pyrimidine-2,4-dione], at CD73 [1], inhibition was half-maximal at 13.5 nM (IC50). Moreover, on CD73 [2], the EC50 was 57.4 nM.

On CD73 [1], `C[C@@]1(F)CCN(c2cc(-c3c[nH]c(=O)[nH]c3=O)nn3ccnc23)C1` [Example 186, 5-[8-[(3R)-3-fluoro-3-methyl-pyrrolidin-1-yl]imidazo[1,2-b]pyridazin-6-yl]-1H-pyrimidine-2,4-dione] gave an IC50 of 7.57 nM. Further, the EC50 on CD73 [2] amounted to 22.3 nM.

Turning to `O=c1[nH]cc(-c2cc(N3CC[C@@H](OC(F)(F)F)C3)c3nccn3n2)c(=O)[nH]1` [Example 187, 5-[8-[(3R)-3-(trifluoromethoxy)pyrrolidin-1-yl]imidazo[1,2-b]pyridazin-6-yl]-1H-pyrimidine-2,4-dione], the IC50 against CD73 [1] is 2.76 nM. At CD73 [2], this molecule registered a concentration giving a half-maximal response (EC50) of 12.6 nM.

With `COCC1(F)CCN(c2cc(-c3c[nH]c(=O)[nH]c3=O)nn3ccnc23)C1` (stereo not shown) [Example 188, 5-[8-[3-fluoro-3-(methoxymethyl)pyrrolidin-1-yl]imidazo[1,2-b]pyridazin-6-yl]-1H-pyrimidine-2,4-dione], the half-inhibitory concentration (IC50) at CD73 [1] came out at 17.5 nM. At CD73 [2], this molecule returned an EC50 of 62.5 nM.

In turn, `COC1(C(F)(F)F)CCN(c2cc(-c3c[nH]c(=O)[nH]c3=O)nn3ccnc23)C1` (stereo not shown) [Example 189, 5-[8-[3-methoxy-3-(trifluoromethyl)pyrrolidin-1-yl]imidazo[1,2-b]pyridazin-6-yl]-1H-pyrimidine-2,4-dione] had a concentration for half-maximal inhibition (IC50) on CD73 [1] of 18.1 nM. The molecule also had an EC50 at CD73 [2] of 49 nM.

`O=c1[nH]cc(-c2cc(N3CCC4(CC4)C3)c3nccn3n2)c(=O)[nH]1` [Example 190, 5-[8-(5-azaspiro[2.4]heptan-5-yl)imidazo[1,2-b]pyridazin-6-yl]-1H-pyrimidine-2,4-dione] displayed a concentration for half-maximal inhibition (IC50) at CD73 [1] of 3.05 nM. Also, the EC50 on CD73 [2] was 12.8 nM.

Molecule `C[C@]1(F)CCN(c2cc(-c3c[nH]c(=O)[nH]c3=O)nn3ccnc23)C1` [Example 191, 5-[8-[(3S)-3-fluoro-3-methyl-pyrrolidin-1-yl]imidazo[1,2-b]pyridazin-6-yl]-1H-pyrimidine-2,4-dione] came in with a 50% inhibitory concentration (IC50) at CD73 [1] of 21.8 nM. Besides, the EC50 at CD73 [2] is 45.8 nM.

As for `C[C@@H]1CN(c2cc(-c3c[nH]c(=O)[nH]c3=O)nn3ccnc23)C[C@H]1C(F)(F)F` [Example 193, 5-[8-[(3S,4S)-3-methyl-4-(trifluoromethyl)pyrrolidin-1-yl]imidazo[1,2-b]pyridazin-6-yl]-1H-pyrimidine-2,4-dione], the IC50 against CD73 [1] amounted to 151 nM. Further, on CD73 [2], the concentration for a half-maximal effect (EC50) came out at 682 nM.

`COc1ccc(C2CN(c3cc(-c4c[nH]c(=O)[nH]c4=O)nn4ccnc34)CC2(F)F)cc1` (stereo not shown) [Example 194, 5-[8-[3,3-difluoro-4-(4-methoxyphenyl)pyrrolidin-1-yl]imidazo[1,2-b]pyridazin-6-yl]-1H-pyrimidine-2,4-dione] displayed an IC50 on CD73 [1] of 3.32 nM. At CD73 [2], this molecule yielded an EC50 of 469 nM.

For the molecule `N#CC1(F)CCN(c2cc(-c3c[nH]c(=O)[nH]c3=O)nn3ccnc23)C1` (stereo not shown) [Example 195, 1-[6-(2,4-dioxo-1H-pyrimidin-5-yl)imidazo[1,2-b]pyridazin-8-yl]-3-fluoro-pyrrolidine-3-carbonitrile], the IC50 at CD73 [1] was 62.9 nM. Moreover, the concentration giving a half-maximal response (EC50) at CD73 [2] amounted to 218 nM.

For `O=c1[nH]cc(-c2cc(N3CC[C@H](OC(F)(F)F)C3)c3nccn3n2)c(=O)[nH]1` [Example 196, 5-[8-[(3S)-3-(trifluoromethoxy)pyrrolidin-1-yl]imidazo[1,2-b]pyridazin-6-yl]-1H-pyrimidine-2,4-dione], at CD73 [1], the IC50 was found to be 98.6 nM. The EC50 on CD73 [2] amounted to 243 nM.

On CD73 [1], `O=c1[nH]cc(-c2cc(N3C[C@H](OC(F)F)C(F)(F)C3)c3nccn3n2)c(=O)[nH]1` [Example 201, 5-[8-[(4S)-4-(difluoromethoxy)-3,3-difluoro-pyrrolidin-1-yl]imidazo[1,2-b]pyridazin-6-yl]-1H-pyrimidine-2,4-dione] registered an IC50 of 1.11 nM. Moreover, the response on CD73 [2] was half-maximal at 6.39 nM (EC50).

On CD73 [1], `O=c1[nH]cc(-c2cc(N3CC(OC(F)F)C(F)(F)C3)c3nccn3n2)c(=O)[nH]1` (stereo not shown) [Example 202, 5-[8-[4-(difluoromethoxy)-3,3-difluoro-pyrrolidin-1-yl]imidazo[1,2-b]pyridazin-6-yl]-1H-pyrimidine-2,4-dione] displayed an IC50 of 1.04 nM. At CD73 [2], this molecule displayed an EC50 of 4.25 nM.

On CD73 [1], `COc1ncc(-c2cc(N3CC(OCC(F)(F)F)C(F)(F)C3)c3nccn3n2)c(OC)n1` (stereo not shown) [Example 203, 8-[3,3-difluoro-4-(2,2,2-trifluoroethoxy)pyrrolidin-1-yl]-6-(2,4-dimethoxypyrimidin-5-yl)imidazo[1,2-b]pyridazine] showed an IC50 of 3.03 nM. For the same molecule, the EC50 on CD73 [2] was determined as 10.3 nM.

Consider `CN(C)C(=O)COC1CN(c2cc(-c3c[nH]c(=O)[nH]c3=O)nn3ccnc23)CC1(F)F` (stereo not shown) [Example 204, 2-[1-[6-(2,4-dioxo-1H-pyrimidin-5-yl)imidazo[1,2-b]pyridazin-8-yl]-4,4-difluoro-pyrrolidin-3-yl]oxy-N,N-dimethyl-acetamide], for which the IC50 at CD73 [1] amounted to 1.63 nM. The EC50 on CD73 [2] was found to be 9.31 nM.

On CD73 [1], `CC(=O)NC1CN(c2cc(-c3c[nH]c(=O)[nH]c3=O)nn3ccnc23)CC1(F)F` (stereo not shown) [Example 205, N-[1-[6-(2,4-dioxo-1H-pyrimidin-5-yl)imidazo[1,2-b]pyridazin-8-yl]-4,4-difluoro-pyrrolidin-3-yl]acetamide] returned an IC50 of 4.42 nM. For the same molecule, the EC50 at CD73 [2] worked out at 16 nM.

`O=C(NC1CN(c2cc(-c3c[nH]c(=O)[nH]c3=O)nn3ccnc23)CC1(F)F)OCC(F)(F)F` (stereo not shown) [Example 206, 2,2,2-trifluoroethyl N-[1-[6-(2,4-dioxo-1H-pyrimidin-5-yl)imidazo[1,2-b]pyridazin-8-yl]-4,4-difluoro-pyrrolidin-3-yl]carbamate]: at CD73 [1], the IC50 came to 4.97 nM. The same molecule had an EC50 on CD73 [2] of 28.7 nM.

`O=C(NC1CN(c2cc(-c3c[nH]c(=O)[nH]c3=O)nn3ccnc23)CC1(F)F)OCC1CC1` (stereo not shown) [Example 207, cyclopropylmethyl N-[1-[6-(2,4-dioxo-1H-pyrimidin-5-yl)imidazo[1,2-b]pyridazin-8-yl]-4,4-difluoro-pyrrolidin-3-yl]carbamate] gave a concentration for half-maximal inhibition (IC50) against CD73 [1] of 6.05 nM. This molecule yielded an EC50 on CD73 [2] of 20.3 nM.

As for `O=C(NC1CN(c2cc(-c3c[nH]c(=O)[nH]c3=O)nn3ccnc23)CC1(F)F)OCC(F)F` (stereo not shown) [Example 208, 2,2-difluoroethyl N-[1-[6-(2,4-dioxo-1H-pyrimidin-5-yl)imidazo[1,2-b]pyridazin-8-yl]-4,4-difluoro-pyrrolidin-3-yl]carbamate], at CD73 [1], the IC50 amounted to 5.88 nM. Besides, at CD73 [2], a half-maximal response (EC50) required 25.4 nM.

Regarding `O=C(NC1CN(c2cc(-c3c[nH]c(=O)[nH]c3=O)nn3ccnc23)CC1(F)F)c1ccccc1` (stereo not shown) [Example 209, N-[1-[6-(2,4-dioxo-1H-pyrimidin-5-yl)imidazo[1,2-b]pyridazin-8-yl]-4,4-difluoro-pyrrolidin-3-yl]benzamide], the IC50 against CD73 [1] came out at 2.8 nM. The molecule also showed an EC50 on CD73 [2] of 24.2 nM.

For the molecule `O=C(NC1CN(c2cc(-c3c[nH]c(=O)[nH]c3=O)nn3ccnc23)CC1(F)F)c1ccc(C(F)(F)F)cc1` (stereo not shown) [Example 210, N-[1-[6-(2,4-dioxo-1H-pyrimidin-5-yl)imidazo[1,2-b]pyridazin-8-yl]-4,4-difluoro-pyrrolidin-3-yl]-4-(trifluoromethyl)benzamide], 4.59 nM corresponded to half-maximal inhibition against CD73 [1] (IC50). Moreover, at CD73 [2], the concentration for a half-maximal effect (EC50) was 24.4 nM.
